Assay results published in US9102752B2, “Peptide vaccine for prevention and immunotherapy of dementia of the Alzheimer's type” (United Biomedical, Inc., priority 2013, dated 2015).

Assays:
[1] = test system: anti-Aβ antibodies in sera of vaccinated patients; assay: Epitope mapping, competitive binding inhibition EIA with patient sera (10-mer peptides, IC50); design: species or system human; Epitope mapping, fine specificity analysis, serum of subject P210: unit not given here; settings: for Epitope mapping, fine specificity analysis, serum of subject P101: serum 16 wpi of vaccinated patient P101; for Epitope mapping, fine specificity analysis, serum of subject P102: serum 16 wpi of vaccinated patient P102; for Epitope mapping, fine specificity analysis, serum of subject P103: serum 16 wpi of vaccinated patient P103; for Epitope mapping, fine specificity analysis, serum of subject P104: serum 16 wpi of vaccinated patient P104; for Epitope mapping, fine specificity analysis, serum of subject P105: serum 16 wpi of vaccinated patient P105; for Epitope mapping, fine specificity analysis, serum of subject P106: serum 16 wpi of vaccinated patient P106; for Epitope mapping, fine specificity analysis, serum of subject P107: serum 16 wpi of vaccinated patient P107; for Epitope mapping, fine specificity analysis, serum of subject P108: serum 16 wpi of vaccinated patient P108; for Epitope mapping, fine specificity analysis, serum of subject P109: serum 16 wpi of vaccinated patient P109; for Epitope mapping, fine specificity analysis, serum of subject P201: serum 16 wpi of vaccinated patient P201; for Epitope mapping, fine specificity analysis, serum of subject P202: serum 16 wpi of vaccinated patient P202; for Epitope mapping, fine specificity analysis, serum of subject P203: serum 16 wpi of vaccinated patient P203; for Epitope mapping, fine specificity analysis, serum of subject P204: serum 16 wpi of vaccinated patient P204; for Epitope mapping, fine specificity analysis, serum of subject P205: serum 16 wpi of vaccinated patient P205; for Epitope mapping, fine specificity analysis, serum of subject P206: serum 16 wpi of vaccinated patient P206; for Epitope mapping, fine specificity analysis, serum of subject P207: serum 16 wpi of vaccinated patient P207; for Epitope mapping, fine specificity analysis, serum of subject P208: serum 16 wpi of vaccinated patient P208; for Epitope mapping, fine specificity analysis, serum of subject P209: serum 16 wpi of vaccinated patient P209; for Epitope mapping, fine specificity analysis, serum of subject P210: serum 16 wpi of vaccinated patient P210
[2] = test system: anti-Aβ antibodies in macaque antisera; assay: Specificity analysis (10-mer peptide ELISA) of antisera from Cynomolgus macaques; assay type: binding
[3] = antisera of macaques given UBI AD Vaccine 150 μg/dose, 9 WPI
[4] = antisera of macaques given UBI AD Vaccine 150 μg/dose, 15 WPI
[5] = antisera of macaques given UBI AD Vaccine 750 μg/dose, 9 WPI
[6] = antisera of macaques given UBI AD Vaccine 750 μg/dose, 15 WPI

Substance | Epitope mapping, fine specificity analysis, serum of subject P101 [1] | Epitope mapping, fine specificity analysis, serum of subject P102 [1] | Epitope mapping, fine specificity analysis, serum of subject P103 [1] | Epitope mapping, fine specificity analysis, serum of subject P104 [1] | Epitope mapping, fine specificity analysis, serum of subject P105 [1] | Epitope mapping, fine specificity analysis, serum of subject P106 [1] | Epitope mapping, fine specificity analysis, serum of subject P107 [1] | Epitope mapping, fine specificity analysis, serum of subject P108 [1] | Epitope mapping, fine specificity analysis, serum of subject P109 [1] | Epitope mapping, fine specificity analysis, serum of subject P201 [1] | Epitope mapping, fine specificity analysis, serum of subject P202 [1] | Epitope mapping, fine specificity analysis, serum of subject P203 [1] | Epitope mapping, fine specificity analysis, serum of subject P204 [1] | Epitope mapping, fine specificity analysis, serum of subject P205 [1] | Epitope mapping, fine specificity analysis, serum of subject P206 [1] | Epitope mapping, fine specificity analysis, serum of subject P207 [1] | Epitope mapping, fine specificity analysis, serum of subject P208 [1] | Epitope mapping, fine specificity analysis, serum of subject P209 [1] | Epitope mapping, fine specificity analysis, serum of subject P210 [1] | Reactivity of antisera with peptide (specificity analysis ELISA) [2, 3] | other results
15 (KMDAEFRHDS; PEPTIDE (1)..(10) Abeta -2-8 or APP 770(K670-S679); listed as Homo sapiens) [compound 15] | 94 | 0 | 0 | 0 | 0 | 0 | 0 | 0 | 0 | 2 | 7 | 0 | 12 | 0 | 0 | 0 | 0 | 0 | 52 | 0.065 | Reactivity of antisera with peptide (specificity analysis ELISA) [2, 4]: 0.031; Reactivity of antisera with peptide (specificity analysis ELISA) [2, 5]: 0.069; Reactivity of antisera with peptide (specificity analysis ELISA) [2, 6]: 0.062
16 (MDAEFRHDSG; PEPTIDE (1)..(10) Abeta -1-9 or APP 770(M671-G680); listed as Homo sapiens) [compound 16] | 420 | 12 | 0 | 0 | 0 | 0 | 0 | 0 | 0 | 9 | 116 | 0 | 17 | 0 | 0 | 2 | 6 | 0 | 121 | 0.056 | Reactivity of antisera with peptide (specificity analysis ELISA) [2, 4]: 0.061; Reactivity of antisera with peptide (specificity analysis ELISA) [2, 5]: 0.051; Reactivity of antisera with peptide (specificity analysis ELISA) [2, 6]: 0.056
17 (AEFRHDSGYE; PEPTIDE (1)..(10) Abeta 2-11 or APP 770(A673-E682); listed as Homo sapiens) [compound 17] | 2 | 0 | 0 | 0 | 0 | 0 | 0 | 0 | 0 | 3 | 0 | 0 | 0 | 0 | 0 | 0 | 0 | 0 | 0 | 0.058 | Reactivity of antisera with peptide (specificity analysis ELISA) [2, 4]: 0.059; Reactivity of antisera with peptide (specificity analysis ELISA) [2, 5]: 0.054; Reactivity of antisera with peptide (specificity analysis ELISA) [2, 6]: 0.060
18 (EFRHDSGYEV; PEPTIDE (1)..(10) Abeta 3-12 or APP 770(E674-V683); listed as Homo sapiens) [compound 18] | 0 | 0 | 0 | 0 | 0 | 0 | 0 | 0 | 0 | 0 | 0 | 0 | 0 | 0 | 0 | 0 | 0 | 0 | 0 | 0.047 | Reactivity of antisera with peptide (specificity analysis ELISA) [2, 4]: 0.060; Reactivity of antisera with peptide (specificity analysis ELISA) [2, 5]: 0.042; Reactivity of antisera with peptide (specificity analysis ELISA) [2, 6]: 0.052
19 (FRHDSGYEVH; PEPTIDE (1)..(10) Abeta 4-13 or APP 770(F675-H684); listed as Homo sapiens) [compound 19] | 0 | 0 | 0 | 0 | 0 | 0 | 0 | 0 | 0 | 0 | 0 | 0 | 0 | 0 | 0 | 0 | 0 | 0 | 0 | 0.085 | Reactivity of antisera with peptide (specificity analysis ELISA) [2, 4]: 0.076; Reactivity of antisera with peptide (specificity analysis ELISA) [2, 5]: 0.066; Reactivity of antisera with peptide (specificity analysis ELISA) [2, 6]: 0.096
